Measured values reported in ChEMBL document CHEMBL1165859, “Synthesis, antiproliferative, acute toxicity and assessment of antiandrogenic activities of some newly synthesized steroidal lactams” (Eur J Med Chem, 2010).

Experiment: Cytotoxicity against Balb/C mouse macrophages assessed as cell mortality at 0.01 to 5 ug/ml after 24 hrs by MTT assay
Settings: not given

Question: Which mortality at 24 h does the source give for `C[C@]12CC[C@H](OC(=O)c3ccc(O)cc3)CC1=CC[C@@H]1[C@@H]2CC[C@]2(C)NC(=O)CC[C@@H]12` here?
Answer: 20%

Experiment: Cytotoxicity against Balb/C mouse macrophages assessed as cell viability after 24 hrs by MTT assay
Format: cell-based
Settings: Macrophage

Question: With `C[C@]12CC[C@H](OC(=O)c3ccc([N+](=O)[O-])cc3)CC1=CC[C@@H]1[C@@H]2CC[C@]2(C)NC(=O)CC[C@@H]12` as the molecule, how does the LC50 read?
Answer: 27.8 µM

Question: Which LC50 does the source give for `C[C@]12CC[C@H](OC(=O)COc3ccccc3)CC1=CC[C@@H]1[C@@H]2CC[C@]2(C)NC(=O)CC[C@@H]12` here?
Answer: 11.7 µM

Question: With `C[C@]12CC[C@H](OC(=O)c3ccc(O)cc3)CC1=CC[C@@H]1[C@@H]2CC[C@]2(C)NC(=O)CC[C@@H]12` as the molecule, how does the LC50 read?
Answer: 75 µM

Question: For `COc1ccc(C(=O)O[C@H]2CC[C@@]3(C)C(=CC[C@@H]4[C@@H]3CC[C@]3(C)NC(=O)CC[C@@H]43)C2)cc1`, which LC50 is on record?
Answer: 8.4 µM

Question: Which LC50 does the source give for `C[C@]12CC[C@H](OC(=O)c3ccc(Cl)cc3)CC1=CC[C@@H]1[C@@H]2CC[C@]2(C)NC(=O)CC[C@@H]12` here?
Answer: 100 µM

Question: With `Cc1ccc(C(=O)O[C@H]2CC[C@@]3(C)C(=CC[C@@H]4[C@@H]3CC[C@]3(C)NC(=O)CC[C@@H]43)C2)cc1` as the molecule, how does the LC50 read?
Answer: 22.8 µM

Question: With `C[C@]12CC[C@H](OC(=O)CCl)CC1=CC[C@@H]1[C@@H]2CC[C@]2(C)NC(=O)CC[C@@H]12` as the molecule, how does the LC50 read?
Answer: 94.1 µM

Question: For `C[C@]12CC[C@H](OC(=O)c3ccccc3)CC1=CC[C@@H]1[C@@H]2CC[C@]2(C)NC(=O)CC[C@@H]12`, which LC50 is on record?
Answer: 43.6 µM

Question: Which LC50 does the source give for `C[C@]12CC[C@H](OC(=O)c3ccc(N)cc3)CC1=CC[C@@H]1[C@@H]2CC[C@]2(C)NC(=O)CC[C@@H]12` here?
Answer: 25.1 µM

Question: With `CC(C)(C)NC(=O)[C@H]1CC[C@H]2[C@@H]3CC[C@H]4NC(=O)C=C[C@]4(C)[C@H]3CC[C@]12C` [FINASTERIDE] as the molecule, how does the LC50 read?
Answer: 28.2 µM
